Values after ≈ are worked out from the molar mass of the structure shown. Like-named read-outs stand apart in the source and are kept apart here.
What was measured:
F plasmid TraI N300 = molecular target: T1, F plasmid TraI N300 (Escherichia coli, UniProt P14565); assay: Fluorescence kinetic assay of oriT DNA cleavage and crossover by TraI N300; type: biochemical, E. coli
T1 construct: An amino-terminal 300 residue F plasmid TraI construct; made in house; host or cells: E. coli BL21 (DE3)/pLysS or HMS174 (DE3)/pLysS, vector pTYB2
T1 sequence (P14565 1-306): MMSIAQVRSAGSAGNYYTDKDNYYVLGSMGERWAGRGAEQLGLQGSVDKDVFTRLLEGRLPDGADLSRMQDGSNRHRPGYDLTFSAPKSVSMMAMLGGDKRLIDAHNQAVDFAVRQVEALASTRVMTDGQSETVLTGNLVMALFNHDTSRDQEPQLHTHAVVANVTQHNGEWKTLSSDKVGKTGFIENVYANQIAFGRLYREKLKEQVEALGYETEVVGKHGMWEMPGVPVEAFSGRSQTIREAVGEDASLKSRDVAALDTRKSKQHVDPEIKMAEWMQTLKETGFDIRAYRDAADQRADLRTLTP
Method: Reaction Buffer: 6.42 mM MgCl2, 20.5% glycerol, 153.9 mM NaCl, and 51.3 mM Tris-HCl pH 7.5. Streptavidin Wash Buffer (Tris buffered saline, TBS/Tween): and 150 mM NaCl, 25 mM Tris-HCl pH 7.5, and 0.05% Tween-20. Stopping Buffer: 1.2% sodium-dodecyl sulfate (SDS), and 300 mM EDTA pH 10. TE Buffer: 1 mM EDTA, and 10 mM Tris-HCl pH 7.4. Fluorescence Buffer: 80% glycerol, 200 mM Tris-HCl pH 8.0. Short-term N300 stock (for storage at −20° C.): 50% Reaction Buffer, 49.8% glycerol, 0.2% long-term protein solution (84.6 nM final N300 concentration). All 5× stocks except Probe stocks were diluted in Reaction Buffer. 5× Enzyme Stock: 8.4 mL short-term N300 stock diluted to 2.02 nM N300. 5× Inhibitor Stocks: imidodiphosphate (pNp) at 0-50 nM in Reaction Buffer. 5× Substrate Stocks: oligonucleotides b29 and PCb31eco diluted to […] each, by 3-fold serial dilutions. 5× Probe Stocks: […] (1.2-fold molar excess) oligonucleotide downF in TE Buffer. All reactions and procedures involving downF were assembled or performed in darkened conditions. Solutions and microtiter plates containing downF were kept in foil-lined containers at all times to prevent photobleaching.
Two oriT derived oligonucleotides, b29 and PCb31eco, were designed for binding and cleavage by TraI based on past studies (see Oligonucleotides section herein; FIG. 4A). The overall method is modified from those described previously for the study of TraI and R388TrwC (Byrd et al., 2002; Grandoso et al., 2000; Matson and Morton, 1991). Reactions were assembled from 16 μL of 5× Substrate Stock, 16 μL of 5× Inhibitor Stock, and 32 μL of Reaction Buffer. 80 μL reactions were initiated with 16 μL of 5× Enzyme Stock and raised to 37° C. 10 μL samples were removed at eight time points (optimized to define timecourses) and stopped in 10 μL of Stopping Buffer at room temperature. Stopped reactions were placed on a 100° C. heat block for one minute, spiked with 2 μL of 5× Probe Stock while still hot, and incubated at 37° C. for 10 minutes (see Kinetic Assay Formulations for probe handling).
Samples were diluted to […] with Streptavidin Wash Buffer and transferred to Biobind Assembly streptavidin-coated microtiter plates (Thermo Electron Corporation, Waltham, Mass., U.S.A.) and incubated at 37° C. for 45 minutes. Plates were washed with at least 5-fold excess Streptavidin Wash Buffer (in an inverted position to prevent excess biotinylated species from transferring between wells). Wells were filled with 65 μL of Fluorescence Buffer for optimum 6-FAM™ fluorescence. Plates were read in a FLUOSTAR OPTIMA™ (BMG Labtech, Offenburg, Germany) with a 490 nm excitation and 520 nm emission filters (10 nm bandpass) with the gain optimized for maximum signal. The timecourses thus collected were designated Cleavage Courses. Plates were removed and irradiated with 306 nm ultraviolet radiation for 10 minutes to cleave the PC biotin linker. They were then washed inverted with at least 5-fold excess Streptavidin Wash Buffer, filled with 65 μL of Fluorescence Buffer, and again read as above. These timecourses were designated Cleavage+Crossover Courses (FIG. 4A).
All timecourses were fitted by nonlinear regression with un-weighted least-squares methods using SIGMAPLOT™ 8.0 (SYSTAT Software, Inc., Point Richmond, Calif., U.S.A.) (also used for graph construction). Timecourses with blanked signals in arbitrary fluorescence units were scaled by curve mean in groups of at least four replicates, culled for outliers, and averaged by time point. On average, one replicate time point was culled from each group of four used. The averaged curves were fitted to a simple, three-parameter exponential decay equation (Equation 1), time versus signal, and converted into units of concentration.
where t is time in seconds, y0+a is the initial signal, b is a constant that determines the shape of the curve. […]

[1] = tested on: DNA conjugation from F+ (JS10) cells to F− (JS4) cells; assay: Mating assay (conjugative DNA transfer); type: cell-based, E. coli; conditions: Escherichia coli, F+ (JS10) donors to F− (JS4) recipients; FIG. 4D; read-out: EC50 of inhibition of DNA conjugation
Method: Mating assays were performed as described (Matson et al., 2001). Briefly, the donor strain JS10 contains pOX38T, a mini-F-plasmid capable of conjugative transfer, which also carries a Tet resistance gene, while the recipient strain JS4 is F− and Str^r. Donor and recipient strains from saturated overnight cultures grown under antibiotic selection were diluted 1:50 into LB and grown to an OD600 of approximately 0.6 in the absence of selection at 37° C. Donors and recipients were then mixed at a ratio of one donor to nine recipients in the presence of the desired concentrations of pNp (e.g., 10, 100 μM, 1, 10 mM) and incubated at 37° C. for five minutes. Following this incubation, the mating mixtures were diluted 1:10 into LB containing the desired concentration of pNp and incubated for a further 30 minutes. Following mating, the mixtures were vortexed to disrupt mating pairs and serially diluted into 0.9% sterile saline. Dilutions, predicted to result in 300-500 colonies on positive control plates, were plated on LB-agar plates containing both streptomycin and tetracycline in order to select for transconjugants and counter select for donors and unmated recipients. Eight replicate samples of each final dilution were plated, the colony counts culled for outliers at 95% confidence, and then averaged.

F+ or F− cells = assay: 24 hr. MIC bounds (turbid/clear wells); type: cell-based, E. coli; conditions: Escherichia coli, 8x serial dilutions, bounds identical for F+ or F− cells

O=P(O)(O)NP(=O)(O)O [pNp, imidodiphosphate] gave a Ki (F plasmid TraI N300; Cleavage, C-B/E Direct Linear Plot, read-out: Kic) of 2.42 nM, a Ki (F plasmid TraI N300; Cleavage, C-B/E Direct Linear Plot, read-out: Kiu) of 2.65 nM and a Ki (F plasmid TraI N300; Cleavage, M/M Nonlinear Regression, competitive inhibition constant, apparent, read-out: Kic) of 2.3 ± 0.26 nM. The Ki (F plasmid TraI N300; Cleavage, M/M Nonlinear Regression, uncompetitive inhibition constant, apparent, read-out: Kiu) was 3.17 ± 0.32 nM, the Ki (F plasmid TraI N300; Crossover, C-B/E Direct linear Plot, read-out: Kic) was 1.59 nM and the Ki (F plasmid TraI N300; Crossover, C-B/E Direct linear Plot, read-out: Kiu) was 3.24 nM. The Ki (F plasmid TraI N300; Crossover, M/M Nonlinear Regression, read-out: Kic) was 0.885 ± 0.543 nM, the Ki (F plasmid TraI N300; DNA cleavage, read-out: inhibition constants (Ki values) for both competitive and uncompetitive modes (Kic and Kiu)) was 2.5 to 3 nM and the Ki (F plasmid TraI N300; DNA crossover, read-out: Kic) was 0.9 to 1.6 nM. It also gave a Ki (F plasmid TraI N300; DNA crossover, read-out: Kiu) of 3.2 nM, an EC50 [1] of roughly 10000 nM and an MIC (F+ or F− cells; clear wells after 24 hr. incubation, read-out: 24 hr. MIC bounds, upper) of 100 mM (≈ 17700 µg/mL). It also gave an MIC (F+ or F− cells; turbid wells after 24 hr. incubation, read-out: 24 hr. MIC bounds, lower) of 12.5 mM (≈ 2210 µg/mL).

— patent US20090221530A1, “Relaxase Modulators and Methods of Using Same” (priority 2005, published 2009)
